# Patent US20250228864A1, “THERAPIES FOR THE TREATMENT OF INFLAMMATORY BOWEL DISEASE” (Gilead Sciences, Inc., priority 2023, published 2025)
# Experiments:
# Assay type in all cases: in vivo
# [1] = tested on: IL-10−/− mouse colitis model; test: Example 3: Formula (III) and anti-p40 combination in IL-10−/− mouse colitis model; details: 21 days; Formula (III) 0.005% in chow, anti-p40 IP; vs no treatment control / either pathway alone
# Experimental: The following experiments were run to evaluate the effects of a combination treatment of Formula (III) in combination with an anti-p40 antibody on the IL-10−/− mouse colitis model compared to the single treatment alone.
# (§1) Female IL-10 deficient C57CL/6 mice (aged 12 weeks at study inception) were used in this study. All animal experiments were conducted according to Swiss animal well fare law and approved by the local animal welfare authority of Zurich County (Tierversuchskommission Zürich, Zurich, Switzerland, License No. ZH256-2014).
# Mice were administered either standard chow diet (Harlan Teklad Global Diets 2014, TD2014) or standard chow diet plus 0.005% of Formula (III) in the chow. Formula (III)'s schedule was ad libitum while the anti-p40 antibody was administered via an intraperitoneal injection on day 1 and then every four days for three weeks.
# The compound was added and mixed to the chow powder at 0.125% concentration, anti-p40 antibody was diluted in phosphate buffered saline (2 mg/mL) (anti-p40 antibody is a murine surrogate of ustekinumab) then dosed at either 2 mg/kg (low dose) or 4 mg/kg (high dose) every four days by intraperitoneal injection. […] The mice were then treated for three (3) weeks (21-days). On Day 21, mice were sacrificed, blood and tissue samples were collected for further analysis.
# Experiments were conducted as describe in Experiment 2.
# [2] = tested on: IL10−/− knockout mouse colitis model; test: Example 2: efficacy in mouse IL10−/− knockout colitis model; details: 21 days
# Experimental: The following study was conducted to evaluate the efficacy of an α4β7 integrin small molecule inhibitor relative to no treatment and to an IL-12/IL-23 inhibitor (anti-p40 antibody a murine surrogate of ustekinumab). […] Endpoint analysis included measurement of colon lamina propria lymphocytes, and histology scoring of the colon tissue.
# Mice were treated for three (3) weeks with Formula (III) mixed with food chow (0.125%), and 4 mg/kg anti-p40 dosed intraperitoneally every four (4) days […].
# as §1
# Mice were administered either standard chow diet (Harlan Teklad Global Diets 2014, TD2014) or standard chow diet plus 0.125% of in chow. Formula (III) schedule was ad libitum while the Anti-p40 antibody was administered via intraperitoneal injection on day 1 and then every four days for three weeks.
# The compound was added and mixed into the chow powder at 0.125% concentration, anti-p40 antibody was diluted in phosphate buffered saline (2 mg/mL) (anti-p40 antibody, a murine surrogate of ustekinumab) then dosed at 4 mg/kg every four days by intraperitoneal injection. […] The mice were then treated for three (3) weeks (21-days). On Day 21, mice were sacrificed, blood and tissue samples were collected for further analysis. While untreated IL-10−/− knockout mice progressively lost body weight and manifested colitis activity (measured by weight loss, stool frequency and stool consistency).
# Mice were anesthetized with and mixture of ketamine (90-120 mg/kg-1 body weight, Vétoquinol, Bern, Switzerland) and Xylazine (8 mg/kg-1 body weight, Bayer, Lyssach, Switzerland) by intraperitoneal injection. Colonoscopies were performed as described in Becker C, Fantini M C, Neurath M F. High resolution colonoscopy in live mice. Nat. Protoc, 2006; 1:2900-4. The procedure was recorded with a Karl Storz Tele Pack Pal 20,043,020 (Karl Storz Endoskope, Tuttlingen, Germany). Scoring of the colonoscopy was done in accordance with the Murine Endoscopic Index of Colitis Severity (MEICS) scoring system as described in Becker C., Fantini M. C., Neurath M. F. High resolution colonoscopy in live mice. Nat. Protoc. 2006; 1:2900-2904. doi: 10.1038/nprot.2006.446. The following five (5) parameters were assessed: (1) transparency of the colon; (2) changes of the vascular pattern; (3) fibrin visible; (4) granularity of the mucosal surface; and (5) stool consistency.
# Tissue Extraction: Mouse colons were extracted and fixed in 4% formalin, embedded in paraffin and then cut into 5-μm sections. The colon sections where then deparaffinized and stained with hematoxylin and eosin.
# Mouse colons were extracted and opened up in a longitudinal orientation, placed in a 15 mL falcon tube, rinsed with PBS (Gibco, Thermo Fisher Scientific, Carlsbad, CA, USA). The colon was then cut into 2 mm^2 sized samples and washed with 2% FBS HBSS (Thermo Fisher Scientific). The supernatant was discarded, resuspended in HBSS supplemented with 2 mM EDTA (Thermo Fisher Scientific) and then incubated at 37° C. on a shaker (300 rpm) for 15 minutes. Upon completion of the incubation the tubes were vigorously shaken, the supernatant was carefully discarded, and the sample was washed with HBSS. Next, the samples were resuspended in a digestion buffer consisting of Dispase (0.6 mg/mL, Gibco) supplemented Collagenase IV (0.4 mg/mL; Clostridium Histolyticum, Sigma-Aldrich). The solution was incubated for 20 minutes on a 37° C. shaker (300 rpm). Upon completion, the samples were homogenized by passing the solution through a 18+1.5-gauge needle. Samples where then stained with TH1, TH17, Neutrophils, and Treg antibodies followed by preforming Flow cytometry analysis of the mice immune cells of the colon tissue. […]
# [3] = First-in-human Part B: plasma PK after once-daily dosing of Formula (III) for 14 days
# Description: Part B (MAD Cohorts 6-10) consisted of up to 5 randomized, blinded (Sponsor-unblinded), placebo-controlled, MAD cohorts. Within each cohort 12 unique subjects were randomized 3:1 to receive blinded Formula (III) (N=9) or PTM Formula (III) (N=3). All subjects within each cohort received Formula (III) at the same dosing frequency.
# Subjects enrolled in Part B received either blinded Formula (III) or PTM Formula (III) twice daily or once daily for 14 days. All subjects within each cohort received study drug at the same dosing frequency.
# All study drugs in Part B (except Cohort 10 which will be administered under fasting conditions) were administered in the morning and evening following a standard meal (twice daily dosing), or only in the morning (daily dosing) following a standard meal except for Cohort 10.
# Concentrations of Formula (III) and the metabolite, in plasma samples were determined using fully validated high-performance liquid chromatography-tandem mass spectrometry (LC-MS/MS) bioanalytical methods. All samples were analyzed in the timeframe supported by frozen stability storage data. The assays for Formula (III), and the metabolite were performed using methods validated by QPS, LLC (Newark, DE, USA).
structure (smiles),measurement,setting,value
"CCOC(=O)[C@H](Cc1ccc(-n2c(=O)c3ccncc3n(C)c2=O)c2ncccc12)NC(=O)c1c(C)cc(N2CCOC[C@@H]2C(F)(F)F)cc1F (atropisomer, axis not shown) [Formula (III)]",body weight loss,[1],improved body weight loss
same,"disease activity (weight loss, stool frequency, stool consistency)",[2]; 0.125% in chow ad libitum,reduced disease activity
same,body weight loss,"[2]; 0.125% in chow ad libitum, vs untreated IL-10−/− mice",ameliorated body weight loss
same,TH1 cells in colon tissue (flow cytometry),[2]; 0.125% in chow,significantly reduced
same,TH17 cells in colon tissue (flow cytometry),[2]; 0.125% in chow,significantly reduced
same,frequency of the Treg in colon tissue (flow cytometry),[2]; 0.125% in chow,without affecting
same,neutrophils in colon tissue (flow cytometry),[2]; 0.125% in chow,significantly reduced
same,histopathology score,"[2]; 0.125% in chow, compared to the non-treatment group",reduced histopathology score
same,colonoscopy score (MEICS),"[2]; 0.125% in chow, over the non-treatment group",significantly improved
same,proinflammatory cytokines detected in the blood,[2],reduced proinflammatory cytokines
same,intestine inflammation,[2]; single agent,significantly ameliorates
same,"metabolite multiple-dose exposure, 200-mg tablet fasting versus 500-mg nonfasting capsule",[3],slightly lower
